Data published in patent US20220218715A1, “NOVEL USE OF PYRROLO-PYRIDINE DERIVATIVE COMPOUND FOR PREVENTION AND/OR TREATMENT OF CANCER” (VORONOI CO., LTD., priority 2019, published 2022).

Columns and labels:
Assay in all cases: scanMAX Kinase analysis panel (DiscoverX)
Type in all cases: binding
Settings in all cases: 1 μM in DMSO
PHKG1 = target: T1, PHKG1 (Homo sapiens, UniProt Q16816)
T1 construct: purchased DiscoverX
From the text: (§1) [(Example Compound−Positive Control)/(Negative Control−Positive Control)×100]

STK33 = target: T2, STK33 (Homo sapiens, UniProt Q9BYT3)
T2 construct: purchased DiscoverX
From the text: as §1

PHKG2 = target: T3, PHKG2 (Homo sapiens, UniProt P15735)
T3 construct: purchased DiscoverX
From the text: as §1

HUNK = target: T4, HUNK (Homo sapiens, UniProt P57058)
T4 construct: purchased DiscoverX scanMAX Kinase analysis panel
From the text: as §1

LRRK2 (G2019S) = target: T5, LRRK2 (G2019S) (Homo sapiens, UniProt Q5S007, G2019S)
T5 construct: purchased DiscoverX
From the text: as §1

MYLK = target: T6, MYLK (Homo sapiens, UniProt Q15746)
T6 construct: purchased DiscoverX
From the text: as §1

ERK5 = target: T7, ERK5 (Homo sapiens, UniProt Q13164)
T7 construct: purchased DiscoverX scanMAX Kinase analysis panel
From the text: as §1

MAPKAPK2 = target: T8, MAPKAPK2 (Homo sapiens, UniProt P49137)
T8 construct: purchased DiscoverX scanMAX Kinase analysis panel
From the text: as §1

STK39 = target: T9, STK39 (Homo sapiens, UniProt Q9UEW8)
T9 construct: purchased DiscoverX scanMAX Kinase analysis panel
From the text: as §1

PAK2 = target: T10, PAK2 (Homo sapiens, UniProt Q13177)
T10 construct: purchased DiscoverX
From the text: as §1

LTK = target: T11, LTK (Homo sapiens, UniProt P29376)
T11 construct: purchased DiscoverX
From the text: as §1

INSR = target: T12, INSR (Homo sapiens, UniProt P06213)
T12 construct: purchased DiscoverX scanMAX Kinase analysis panel
From the text: as §1

PLK4 = target: T13, PLK4 (Homo sapiens, UniProt O00444)
T13 construct: purchased DiscoverX scanMAX Kinase analysis panel
From the text: as §1

ABL1-nonphosphorylated = target: T14, ABL1-nonphosphorylated (Homo sapiens, UniProt P00519)
T14 construct: purchased DiscoverX
From the text: as §1

GAK = target: T15, GAK (Homo sapiens, UniProt O14976)
T15 construct: purchased DiscoverX
From the text: as §1

CAMKK2 = target: T16, CAMKK2 (Homo sapiens, UniProt Q96RR4)
T16 construct: purchased DiscoverX
From the text: as §1

JNK2 = target: T17, JNK2 (Homo sapiens, UniProt P45984)
T17 construct: purchased DiscoverX scanMAX Kinase analysis panel
From the text: as §1

CSNK1A1 = target: T18, CSNK1A1 (Homo sapiens, UniProt P48729)
T18 construct: purchased DiscoverX
From the text: as §1

CAMK2D = target: T19, CAMK2D (Homo sapiens, UniProt Q13557)
T19 construct: purchased DiscoverX
From the text: as §1

LRRK2 = target: T20, LRRK2 (Homo sapiens, UniProt Q5S007)
T20 construct: purchased DiscoverX scanMAX Kinase analysis panel
From the text: as §1

CHEK2 = target: T21, CHEK2 (Homo sapiens, UniProt O96017)
T21 construct: purchased DiscoverX
From the text: as §1

[1] = target: T22, JAK1 (JH2domain-psudokinase) (Homo sapiens, UniProt P23458)
T22 construct: JAK1 (JH2domain-pseudokinase); purchased DiscoverX scanMAX Kinase analysis panel
From the text: as §1

ALK = target: T23, ALK (Homo sapiens, UniProt Q9UM73)
T23 construct: purchased DiscoverX
From the text: as §1

T2 sequence (Q9BYT3 whole entry): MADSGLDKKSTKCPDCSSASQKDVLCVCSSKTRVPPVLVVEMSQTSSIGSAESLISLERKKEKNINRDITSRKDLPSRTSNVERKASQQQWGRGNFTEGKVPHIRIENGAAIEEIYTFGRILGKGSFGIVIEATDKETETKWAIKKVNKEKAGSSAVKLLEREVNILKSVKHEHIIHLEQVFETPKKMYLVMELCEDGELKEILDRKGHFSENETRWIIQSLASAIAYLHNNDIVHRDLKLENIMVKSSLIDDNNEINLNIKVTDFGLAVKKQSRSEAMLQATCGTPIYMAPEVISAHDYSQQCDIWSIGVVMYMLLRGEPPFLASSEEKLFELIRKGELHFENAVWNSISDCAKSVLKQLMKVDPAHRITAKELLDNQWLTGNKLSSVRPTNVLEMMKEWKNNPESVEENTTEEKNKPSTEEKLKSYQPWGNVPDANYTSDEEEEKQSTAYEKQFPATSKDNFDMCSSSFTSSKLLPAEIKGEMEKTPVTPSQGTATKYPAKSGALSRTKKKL
T4 sequence (P57058 whole entry): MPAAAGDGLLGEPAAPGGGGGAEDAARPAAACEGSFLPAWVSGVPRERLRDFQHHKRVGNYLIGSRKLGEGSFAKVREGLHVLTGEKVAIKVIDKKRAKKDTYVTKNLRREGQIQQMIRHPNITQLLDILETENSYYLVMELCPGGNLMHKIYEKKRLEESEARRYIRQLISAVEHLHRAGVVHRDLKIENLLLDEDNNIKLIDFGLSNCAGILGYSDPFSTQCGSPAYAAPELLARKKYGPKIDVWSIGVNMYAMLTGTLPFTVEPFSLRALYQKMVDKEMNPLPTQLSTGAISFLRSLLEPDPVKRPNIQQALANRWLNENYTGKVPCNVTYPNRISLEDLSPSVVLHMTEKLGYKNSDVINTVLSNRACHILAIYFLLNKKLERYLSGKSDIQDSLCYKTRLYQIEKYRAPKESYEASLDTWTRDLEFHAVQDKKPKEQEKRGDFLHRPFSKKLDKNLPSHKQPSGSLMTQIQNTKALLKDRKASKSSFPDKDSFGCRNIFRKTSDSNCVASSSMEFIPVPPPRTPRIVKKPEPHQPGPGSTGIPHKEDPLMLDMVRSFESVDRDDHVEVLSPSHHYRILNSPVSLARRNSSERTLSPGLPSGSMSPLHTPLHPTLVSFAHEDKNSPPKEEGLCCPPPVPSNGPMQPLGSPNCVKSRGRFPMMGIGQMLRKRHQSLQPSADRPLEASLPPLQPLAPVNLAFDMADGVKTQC
T12 sequence (P06213 28-1382): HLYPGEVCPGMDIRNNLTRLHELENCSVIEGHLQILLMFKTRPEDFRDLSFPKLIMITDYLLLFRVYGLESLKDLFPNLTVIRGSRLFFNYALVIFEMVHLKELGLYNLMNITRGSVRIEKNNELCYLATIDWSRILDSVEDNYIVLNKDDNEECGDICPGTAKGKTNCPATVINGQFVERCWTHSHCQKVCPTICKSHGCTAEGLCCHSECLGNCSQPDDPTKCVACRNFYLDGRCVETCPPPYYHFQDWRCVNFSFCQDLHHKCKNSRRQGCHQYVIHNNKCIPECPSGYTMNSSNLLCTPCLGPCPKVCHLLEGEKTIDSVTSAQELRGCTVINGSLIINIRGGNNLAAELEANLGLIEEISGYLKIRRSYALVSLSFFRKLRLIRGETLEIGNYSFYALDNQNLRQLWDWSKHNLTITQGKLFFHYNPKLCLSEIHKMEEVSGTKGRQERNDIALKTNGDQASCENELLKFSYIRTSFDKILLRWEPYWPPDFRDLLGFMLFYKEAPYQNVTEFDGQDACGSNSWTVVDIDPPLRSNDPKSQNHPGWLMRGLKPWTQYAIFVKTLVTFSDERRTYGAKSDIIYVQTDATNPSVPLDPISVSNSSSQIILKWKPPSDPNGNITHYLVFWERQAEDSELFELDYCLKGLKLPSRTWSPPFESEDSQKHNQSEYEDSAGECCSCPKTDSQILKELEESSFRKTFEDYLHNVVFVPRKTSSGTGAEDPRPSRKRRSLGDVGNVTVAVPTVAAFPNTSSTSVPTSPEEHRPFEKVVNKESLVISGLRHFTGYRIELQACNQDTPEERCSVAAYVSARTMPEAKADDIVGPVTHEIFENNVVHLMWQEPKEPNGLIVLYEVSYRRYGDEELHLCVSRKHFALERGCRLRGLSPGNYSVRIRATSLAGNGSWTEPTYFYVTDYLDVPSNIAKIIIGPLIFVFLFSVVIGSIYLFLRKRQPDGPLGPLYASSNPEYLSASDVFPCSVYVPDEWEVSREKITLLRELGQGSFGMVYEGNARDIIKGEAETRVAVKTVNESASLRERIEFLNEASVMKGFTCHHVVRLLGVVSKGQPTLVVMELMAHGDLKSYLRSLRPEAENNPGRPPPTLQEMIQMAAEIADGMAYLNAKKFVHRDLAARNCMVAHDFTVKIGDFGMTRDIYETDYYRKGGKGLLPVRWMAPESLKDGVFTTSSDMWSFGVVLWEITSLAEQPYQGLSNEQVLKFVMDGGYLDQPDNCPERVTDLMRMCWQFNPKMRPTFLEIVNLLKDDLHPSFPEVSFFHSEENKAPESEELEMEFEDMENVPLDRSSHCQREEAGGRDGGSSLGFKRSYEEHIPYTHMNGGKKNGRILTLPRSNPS
T15 sequence (O14976 whole entry): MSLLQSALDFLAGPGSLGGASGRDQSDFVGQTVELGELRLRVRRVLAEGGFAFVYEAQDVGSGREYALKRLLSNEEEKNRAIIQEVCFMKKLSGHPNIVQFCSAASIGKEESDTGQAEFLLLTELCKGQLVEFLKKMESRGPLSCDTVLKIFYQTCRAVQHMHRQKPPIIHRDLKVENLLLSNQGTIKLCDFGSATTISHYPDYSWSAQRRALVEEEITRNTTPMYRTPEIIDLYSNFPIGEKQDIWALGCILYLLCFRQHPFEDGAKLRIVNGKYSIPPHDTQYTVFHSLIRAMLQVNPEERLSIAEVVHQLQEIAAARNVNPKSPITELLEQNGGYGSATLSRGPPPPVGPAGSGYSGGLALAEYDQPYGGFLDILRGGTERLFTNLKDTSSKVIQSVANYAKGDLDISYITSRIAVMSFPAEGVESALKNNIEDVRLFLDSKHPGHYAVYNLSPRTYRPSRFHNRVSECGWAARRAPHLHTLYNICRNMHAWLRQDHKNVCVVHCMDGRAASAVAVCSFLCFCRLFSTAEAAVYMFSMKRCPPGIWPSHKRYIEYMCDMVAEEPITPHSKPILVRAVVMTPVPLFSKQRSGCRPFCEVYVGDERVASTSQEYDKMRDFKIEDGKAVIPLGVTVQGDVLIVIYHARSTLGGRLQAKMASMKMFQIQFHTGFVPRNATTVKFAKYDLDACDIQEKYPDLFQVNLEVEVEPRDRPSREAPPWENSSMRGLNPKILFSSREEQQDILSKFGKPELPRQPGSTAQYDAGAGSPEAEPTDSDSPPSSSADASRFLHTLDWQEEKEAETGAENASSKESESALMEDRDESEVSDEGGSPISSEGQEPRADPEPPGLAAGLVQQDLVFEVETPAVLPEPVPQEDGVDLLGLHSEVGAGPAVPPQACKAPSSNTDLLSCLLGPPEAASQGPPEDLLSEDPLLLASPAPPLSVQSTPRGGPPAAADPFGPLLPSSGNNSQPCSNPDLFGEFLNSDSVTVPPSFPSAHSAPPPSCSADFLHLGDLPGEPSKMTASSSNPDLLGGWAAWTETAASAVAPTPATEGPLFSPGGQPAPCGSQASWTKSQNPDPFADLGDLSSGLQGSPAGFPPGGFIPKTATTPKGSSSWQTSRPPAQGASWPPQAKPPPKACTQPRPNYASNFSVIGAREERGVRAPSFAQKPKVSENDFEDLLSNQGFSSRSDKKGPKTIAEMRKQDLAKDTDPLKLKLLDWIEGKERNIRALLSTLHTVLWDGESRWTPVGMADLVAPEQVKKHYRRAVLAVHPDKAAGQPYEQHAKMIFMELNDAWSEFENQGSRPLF
T19 sequence (Q13557 whole entry): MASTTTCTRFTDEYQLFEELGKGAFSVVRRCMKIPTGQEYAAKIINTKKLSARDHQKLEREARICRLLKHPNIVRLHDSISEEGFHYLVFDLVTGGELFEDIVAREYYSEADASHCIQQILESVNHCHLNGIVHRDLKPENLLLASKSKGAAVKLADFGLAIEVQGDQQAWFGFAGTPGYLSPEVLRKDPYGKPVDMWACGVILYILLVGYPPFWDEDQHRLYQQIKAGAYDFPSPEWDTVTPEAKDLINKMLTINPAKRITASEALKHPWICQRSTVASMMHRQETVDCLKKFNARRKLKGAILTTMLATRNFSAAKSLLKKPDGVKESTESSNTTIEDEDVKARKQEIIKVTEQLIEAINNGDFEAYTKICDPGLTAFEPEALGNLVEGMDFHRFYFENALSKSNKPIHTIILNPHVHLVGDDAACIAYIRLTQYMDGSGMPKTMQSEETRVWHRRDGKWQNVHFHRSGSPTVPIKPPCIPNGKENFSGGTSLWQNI
T8 sequence (P49137 whole entry): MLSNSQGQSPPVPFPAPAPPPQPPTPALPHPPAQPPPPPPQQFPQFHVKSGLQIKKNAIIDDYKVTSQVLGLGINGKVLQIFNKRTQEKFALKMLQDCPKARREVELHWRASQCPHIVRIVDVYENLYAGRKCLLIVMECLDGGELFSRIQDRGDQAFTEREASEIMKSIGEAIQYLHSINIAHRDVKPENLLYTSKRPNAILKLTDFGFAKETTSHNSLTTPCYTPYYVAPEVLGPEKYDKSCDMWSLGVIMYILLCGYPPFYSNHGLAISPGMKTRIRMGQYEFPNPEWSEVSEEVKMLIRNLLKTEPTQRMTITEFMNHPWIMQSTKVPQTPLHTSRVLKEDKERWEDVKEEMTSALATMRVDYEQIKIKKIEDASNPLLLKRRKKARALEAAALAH
T22 sequence (P23458 583-855 limits assumed): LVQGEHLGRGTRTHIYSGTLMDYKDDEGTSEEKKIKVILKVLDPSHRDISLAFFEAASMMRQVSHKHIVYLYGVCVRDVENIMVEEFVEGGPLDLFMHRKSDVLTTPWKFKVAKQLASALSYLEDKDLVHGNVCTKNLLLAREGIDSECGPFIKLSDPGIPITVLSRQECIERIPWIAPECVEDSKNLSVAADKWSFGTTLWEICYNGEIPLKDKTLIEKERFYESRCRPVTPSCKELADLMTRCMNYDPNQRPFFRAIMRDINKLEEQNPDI

inhibition at 1 µM (PHKG1): ≥ 59%
inhibition at 1 µM (STK33): ≥ 59%
inhibition at 1 µM (PHKG2): ≥ 59%
inhibition at 1 µM (HUNK): 40 to 59%
inhibition at 1 µM (LRRK2 (G2019S)): ≥ 59%
inhibition at 1 µM (MYLK): ≥ 59%
inhibition at 1 µM (ERK5): 40 to 59%
inhibition at 1 µM (MAPKAPK2): 40 to 59%
inhibition at 1 µM (STK39): 40 to 59%
inhibition at 1 µM (PAK2): ≥ 59%
inhibition at 1 µM (LTK): ≥ 59%
inhibition at 1 µM (INSR): 40 to 59%
inhibition at 1 µM (PLK4): 40 to 59%
inhibition at 1 µM (ABL1-nonphosphorylated): 40 to 59%
inhibition at 1 µM (GAK): ≥ 59%
inhibition at 1 µM (CAMKK2): 40 to 59%
inhibition at 1 µM (JNK2): 40 to 59%
inhibition at 1 µM (CSNK1A1): 40 to 59%
inhibition at 1 µM (CAMK2D): 40 to 59%
inhibition at 1 µM (LRRK2): 40 to 59%
inhibition at 1 µM (CHEK2): 40 to 59%
inhibition at 1 µM [1]: 40 to 59%
inhibition at 1 µM (ALK): ≥ 59%
SMILES: CCNc1cc(Nc2ccc(C(=O)N3CCC(N4CCOCC4)CC3)cc2OC)nc2[nH]cc(C(F)(F)F)c12 [Compound 1, (4-((4-(ethylamino)-3-(trifluoromethyl)-1H-pyrrolo[2,3-b]pyridine-6-yl)amino)-3-methoxyphenyl) (4-morpholinopiperidine-1-yl)methanone]
